Experimental data: patent US20040009949A1, “Method for treating autoimmune or inflammatory diseases with combinations of inhibitory oligonucleotides and small molecule antagonists of immunostimulatory CpG nucleic acids” (Coley Pharmaceutical Group, Inc., priority 2002, published 2004)

Target: T1, human TLR9 (Homo sapiens, UniProt Q9NR96)
T1 construct: expressed in transfected cells
T1 sequence (Q9NR96 26-1032): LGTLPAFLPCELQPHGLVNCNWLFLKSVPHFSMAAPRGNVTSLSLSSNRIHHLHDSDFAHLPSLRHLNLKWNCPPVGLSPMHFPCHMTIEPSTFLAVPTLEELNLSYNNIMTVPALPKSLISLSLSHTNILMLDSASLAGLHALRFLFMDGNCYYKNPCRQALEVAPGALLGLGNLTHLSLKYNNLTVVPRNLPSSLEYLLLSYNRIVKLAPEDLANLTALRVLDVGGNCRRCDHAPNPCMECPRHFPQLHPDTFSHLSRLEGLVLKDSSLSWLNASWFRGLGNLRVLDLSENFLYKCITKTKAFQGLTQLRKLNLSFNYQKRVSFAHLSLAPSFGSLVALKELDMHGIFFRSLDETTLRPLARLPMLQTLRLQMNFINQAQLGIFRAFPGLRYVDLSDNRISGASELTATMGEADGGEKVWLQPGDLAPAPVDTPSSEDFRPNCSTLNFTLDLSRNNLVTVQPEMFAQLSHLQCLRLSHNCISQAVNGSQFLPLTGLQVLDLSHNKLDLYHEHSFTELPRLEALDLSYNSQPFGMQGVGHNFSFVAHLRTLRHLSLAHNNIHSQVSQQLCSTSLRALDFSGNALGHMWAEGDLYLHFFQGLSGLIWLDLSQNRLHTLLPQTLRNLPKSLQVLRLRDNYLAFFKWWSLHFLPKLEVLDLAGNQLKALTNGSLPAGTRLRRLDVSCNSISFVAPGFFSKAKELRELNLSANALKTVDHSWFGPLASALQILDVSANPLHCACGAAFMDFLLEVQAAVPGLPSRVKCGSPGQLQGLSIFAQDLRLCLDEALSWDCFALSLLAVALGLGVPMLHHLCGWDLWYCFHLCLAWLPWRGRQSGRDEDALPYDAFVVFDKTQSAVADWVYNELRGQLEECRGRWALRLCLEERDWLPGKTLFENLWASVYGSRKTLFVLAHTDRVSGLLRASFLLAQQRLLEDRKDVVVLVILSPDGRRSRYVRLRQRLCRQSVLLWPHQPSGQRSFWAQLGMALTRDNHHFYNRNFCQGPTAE
Test: NF-κB-luciferase activation of stably transfected 293-hTLR9-luc cells by CpG ODN 2006 in presence of inhibitory ODN 2088 and/or chloroquine
Assay type: cell-based
Settings: as Table 1: ODN 2088 0.05 μM
Protocol: To generate stable clones expressing human TLR9, murine TLR9, or either TLR9 with the NF-κB-luc reporter plasmid, 293 cells were transfected in 10 cm plates (2×10^6 cells/plate) with 16 μg of DNA and selected with 0.7 mg/mL G418 (PAA Laboratories GmbH, Cölbe, Germany). The clones were also screened for IL-8 production or NF-κB-luciferase activity after stimulation with ODN. Four different types of clones were generated.
NF-κB activation was measured by determining luciferase activity of cells 16 h later. Results are given as fold induction above medium background.

Compound | Fold increase of EC50 compared to ODN 2006 + TE (chloroquine 0.039 μg/mL) [fold] | Fold increase of EC50 compared to ODN 2006 + TE (chloroquine 0.078 μg/mL) [fold] | Fold increase of EC50 compared to ODN 2006 + TE (chloroquine 0.3125 μg/mL) [fold]
ODN 2088: inhibitory ODN, TCCTGGCGGGGAAGT, SEQ ID NO:7 (chemistry not given here) | 14.7 | 4.2 | 8.0
CCN(CC)CCCC(C)Nc1ccnc2cc(Cl)ccc12 (stereo not drawn) [Chloroquine, chloroquine] | 2.3 | 2.6 | 3.6
